Laboratory results from the supplement of paper PMC13380429.

Key:
Settings in all cases: 72 h
Calu-3 [1] = experiment: cell viability relative to DMSO; higher = less toxic
U2OS [2] = experiment: as above
Caco-2 [3] = experiment: as above
Vero E6 [4] = experiment: as above
HepG2 [5] = experiment: as above
Calu-3 [6] = experiment: relative viability EC50 (midpoint between 100% and the lowest measured viability); higher = less toxic
U2OS [7] = experiment: as above
Caco-2 [8] = experiment: as above
Vero E6 [9] = experiment: as above
HepG2 [10] = experiment: as above
Calu-3 [11] = experiment: drug sensitivity score (DSS) for viability; higher = more toxic; extreme values may be limits of the assay
U2OS [12] = experiment: as above
Caco-2 [13] = experiment: as above
Vero E6 [14] = experiment: as above
HepG2 [15] = experiment: as above

Structure (SMILES) | cell viability (Calu-3 [1]; 1 nM) [%] | cell viability (Calu-3 [1]; 10 nM) [%] | cell viability (Calu-3 [1]; 100 nM) [%] | cell viability (Calu-3 [1]; 1000 nM) [%] | cell viability (Calu-3 [1]; 10000 nM) [%] | cell viability (U2OS [2]; 1 nM) [%] | cell viability (U2OS [2]; 10 nM) [%] | cell viability (U2OS [2]; 100 nM) [%] | cell viability (U2OS [2]; 1000 nM) [%] | cell viability (U2OS [2]; 10000 nM) [%] | cell viability (Caco-2 [3]; 1 nM) [%] | cell viability (Caco-2 [3]; 10 nM) [%] | cell viability (Caco-2 [3]; 100 nM) [%] | cell viability (Caco-2 [3]; 1000 nM) [%] | cell viability (Caco-2 [3]; 10000 nM) [%] | cell viability (Vero E6 [4]; 1 nM) [%] | cell viability (Vero E6 [4]; 10 nM) [%] | cell viability (Vero E6 [4]; 100 nM) [%] | cell viability (Vero E6 [4]; 1000 nM) [%] | cell viability (Vero E6 [4]; 10000 nM) [%] | cell viability (HepG2 [5]; 1 nM) [%] | cell viability (HepG2 [5]; 10 nM) [%] | cell viability (HepG2 [5]; 100 nM) [%] | cell viability (HepG2 [5]; 1000 nM) [%] | cell viability (HepG2 [5]; 10000 nM) [%] | relative viability EC50 (Calu-3 [6]) [µM] | relative viability EC50 (U2OS [7]) [µM] | relative viability EC50 (Caco-2 [8]) [µM] | relative viability EC50 (Vero E6 [9]) [µM] | relative viability EC50 (HepG2 [10]) [µM] | drug sensitivity score (Calu-3 [11]) | drug sensitivity score (U2OS [12]) | drug sensitivity score (Caco-2 [13]) | drug sensitivity score (Vero E6 [14]) | drug sensitivity score (HepG2 [15])
CC(=O)N[C@@H](CSC/C=C(\C)CC/C=C(\C)CCC=C(C)C)C(=O)O [acetyl-farnesyl-cysteine] | 108 | 84.9 | 86.6 | 99.9 | 101 | 95.7 | 96.9 | 101 | 99 | 101 | 92.9 | 98.1 | 100 | 101 | 108 | 93.9 | 107 | 93 | 99.6 | 101 | 90.9 | 92.5 | 99.8 | 102 | 105 | > 10 | > 10 | > 10 | > 10 | > 10 | 0 | 0 | 0 | 0 | 0
COc1ccc(-c2ccc3ncc4c(c3c2)n(-c2ccc(N3CCNCC3)c(C(F)(F)F)c2)c(=O)n4C)cn1 [BGT226] | 110 | 58.3 | 29.6 | 23.2 | 0 | 101 | 74.2 | 22.8 | 0.1 | -0.2 | 88.6 | 69 | 35.8 | 19.3 | 0.6 | 98 | 93.9 | 52.2 | 22.2 | -0.2 | 110 | 91.5 | 50.8 | 11.5 | -0.3 | 0.0321 | 0.0293 | 0.0397 | 0.14 | 0.107 | 28.4 | 29.8 | 26.8 | 21 | 22.8
CCC/N=C1\S/C(=C\c2ccc(OC[C@H](O)CO)c(Cl)c2)C(=O)N1c1ccccc1C [ponesimod] | 90.5 | 103 | 105 | 105 | 108 | 98.5 | 100 | 100 | 101 | 98.4 | 91.2 | 100 | 95.6 | 99 | 79.6 | 100 | 94 | 91.5 | 91.5 | 93.7 | 95.8 | 89.6 | 99.5 | 102 | 91.6 | > 10 | > 10 | > 10 | > 10 | > 10 | 0 | 0 | 0.7 | 0 | 0
CCC[S+]([O-])c1ccc2[nH]c(NC(=O)OC)nc2c1 (stereo not given) [albendazole-oxide] | 114 | 104 | 103 | 95.7 | 107 | 105 | 101 | 101 | 99.6 | 103 | 101 | 98.8 | 96.6 | 101 | 102 | 103 | 104 | 102 | 101 | 94 | 107 | 103 | 98 | 106 | 83.7 | > 10 | > 10 | > 10 | > 10 | > 10 | 0 | 0 | 0 | 0 | 0.2
CCOc1cncc(/C=C/CCNC)c1 [TC2559] | 87.6 | 98.9 | 98.2 | 95.9 | 109 | 101 | 102 | 97 | 101 | 104 | 97.9 | 99.4 | 100 | 108 | 102 | 94.1 | 94.5 | 89.2 | 90.2 | 110 | 100 | 93.1 | 110 | 96.7 | 117 | > 10 | > 10 | > 10 | > 10 | > 10 | 0 | 0 | 0 | 0 | 0
COc1ccc(-c2nc(N3CCOCC3)c3sc(CN(C)c4ncc(C(=O)NO)cn4)cc3n2)cn1 [CUDC-907] | 85.2 | 65.4 | 14.1 | 5.1 | 3.7 | 90.9 | 34.4 | 0.6 | 0.3 | 0.4 | 81.5 | 73.2 | 3.5 | 0.6 | 1 | 103 | 78.2 | 0 | -0.3 | -0.4 | 90.2 | 39.6 | 0.6 | -0.1 | -0.1 | 0.0152 | 0.006 | 0.0177 | 0.0166 | 0.0069 | 32 | 38.7 | 33 | 34 | 37.9
O=C(O)/C=C/c1ccc(O)c(O)c1 [caffeic-acid] | 93.1 | 111 | 109 | 95 | 102 | 94 | 100 | 95.9 | 100 | 105 | 89 | 92.8 | 90.9 | 94.7 | 108 | 99.1 | 96.7 | 102 | 94.1 | 104 | 101 | 104 | 106 | 97.5 | 105 | > 10 | > 10 | > 10 | > 10 | > 10 | 0 | 0 | 0 | 0 | 0
CCCCCCCCCCC[C@@H](C[C@@H]1OC(=O)[C@H]1CCCCCC)OC(=O)[C@H](CC(C)C)NC=O [orlistat] | 103 | 97.4 | 110 | 102 | 103 | 96 | 97.2 | 92.6 | 105 | 105 | 111 | 98.5 | 99.9 | 99 | 94.9 | 96.2 | 98.2 | 89.9 | 82.8 | 102 | 104 | 106 | 108 | 96.7 | 100 | > 10 | > 10 | > 10 | > 10 | > 10 | 0 | 0 | 0 | 0 | 0
O=C(Nc1ccccc1-c1cn2c(CN3CCNCC3)csc2n1)c1cnc2ccccc2n1 [SRT1720] | 102 | 101 | 103 | 102 | 0.9 | 102 | 99.7 | 98.1 | 102 | 0.2 | 88.6 | 93.3 | 99.7 | 98.4 | 5.4 | 98.2 | 97.7 | 97.7 | 94.3 | 0.1 | 94 | 94.4 | 102 | 91.6 | 0.3 | 3.3 | 3.3 | 3.05 | 2.72 | 2.47 | 5.3 | 5.4 | 5.5 | 6.4 | 6.9
CC(C)C[C@H](NC(=O)[C@H](CCCCN)NC(=O)[C@H](CCCNC(=N)N)NC(=O)[C@H](C)NC(=O)[C@H](CO)NC(=O)[C@H](CCCCN)NC(=O)[C@H](CCCNC(=N)N)NC(=O)[C@H](C)NC(=O)CNC(=O)[C@@H](NC(=O)[C@H](Cc1ccccc1)NC(=O)CNC(=O)CNC(=O)[C@@H](N)Cc1ccccc1)[C@@H](C)O)C(=O)N[C@@H](C)C(=O)N[C@@H](CC(N)=O)C(=O)N[C@@H](CCC(N)=O)C(=O)O [orphanin-fq] | 104 | 107 | 101 | 112 | 96.8 | 98.1 | 93.3 | 97.7 | 97.5 | 96.1 | 90.9 | 93.6 | 104 | 106 | 96.5 | 92.2 | 99.7 | 95.3 | 97.1 | 98.6 | 94.3 | 97.4 | 94.5 | 98.7 | 106 | > 10 | > 10 | > 10 | > 10 | > 10 | 0 | 0 | 0 | 0 | 0
O=c1c(-n2ccnn2)c[nH]n1-c1cc(N2CCOCC2)ncn1 [molidustat] | 78.6 | 97.9 | 87.8 | 104 | 88 | 98.1 | 97.7 | 94.7 | 103 | 91.4 | 100 | 107 | 100 | 97.2 | 96 | 108 | 99.4 | 104 | 95.8 | 90.9 | 104 | 95.4 | 94.8 | 93.2 | 95.3 | > 10 | > 10 | > 10 | > 10 | > 10 | 0 | 0 | 0 | 0 | 0
O=C1C(=C(O)/C=C/c2ccc(O)cc2)C(=O)[C@@](O)([C@@H]2O[C@H](CO)[C@@H](O)[C@H](O)[C@H]2O)C(=O)[C@H]1[C@@H]1O[C@H](CO)[C@@H](O)[C@H](O)[C@H]1O | 103 | 97.6 | 102 | 101 | 97.9 | 101 | 97.8 | 95 | 99.3 | 98.6 | 102 | 91.2 | 93.1 | 93.3 | 95.8 | 101 | 98.1 | 98.5 | 95.8 | 98.5 | 102 | 97.2 | 104 | 102 | 106 | > 10 | > 10 | > 10 | > 10 | > 10 | 0 | 0 | 0 | 0 | 0
COC1CCN(C(=O)c2cc(Cc3n[nH]c(=O)c4ccccc34)ccc2F)CC1 [AZD2461] | 86.7 | 100 | 79.8 | 69.5 | 92.5 | 94.4 | 96 | 99.1 | 94.4 | 100 | 90.3 | 97.5 | 95.5 | 100 | 93.6 | 99.3 | 97 | 99.7 | 97.9 | 99.9 | 99.5 | 86 | 85.5 | 93.8 | 87.2 | > 10 | > 10 | > 10 | > 10 | > 10 | 0 | 0 | 0 | 0 | 3.4
